{"source": "paper PMC10915964", "about": "“Identifying ligands for the PHD1 finger of KDM5A through high-throughput screening†” (RSC Chemical Biology, 2023)", "assay": "Solubility in the NMR buffer", "format": "physicochemical", "conditions": "1 mM in 50 mM HEPES pH 7.5, 150 mM KCl NMR buffer", "protocol": "The binding of the ChemBridge screen hits to PHD1 was further evaluated using 2D ^1H–^15N HSQC NMR spectroscopy. This direct binding method allowed us to monitor binding by observing any ligand-induced changes in the previously assigned ^1H–^15N PHD1 amino acid resonances.[12] The HSQC spectra of 50 μM ^15N-labeled PHD1 with DMSO were overlaid with the spectra of the ^15N-labeled PHD1 incubated with 1 mM compound. […] Compound 715 958 was insoluble in the NMR buffer at this concentration and was not evaluated.\nThe six NCI screen hits confirmed by dose response in the FP assay were further evaluated by 2D ^1H–^15N HSQC NMR at 1 mM to assess their direct binding to PHD1 (Fig. S5, ESI ^†). Compound 990 670 was insoluble in the NMR buffer and was excluded from further consideration. Out of the five compounds evaluated, 991 830, 990 856, and 988 385 caused very minor CSP on PHD1 (average shifts ≤ 0.002 ppm; Fig. S5a–c, ESI ^†). […] The observed perturbations are low, but in the range of those induced by competitive binding fragment ligands evaluated at 5 mM with the PHD finger of BAZ2B, for which the perturbations observed were up to 0.035 ppm.[19] Residue Cys322, one of the Zn(II) ligands in the first zinc finger in PHD1, is the most affected by the presence of oxazepine 516 969 (Δδ of 0.009 ppm; Fig. S5d, ESI ^†). […]", "data": [{"smiles": "Cc1ccc(N2CC(c3nnc(NC(=O)c4c(-c5ccccc5)noc4C)s3)CC2=O)cc1C", "note": "(stereo not shown) [990 670]", "values": [{"measurement": "solubility in the NMR buffer", "result": "insoluble"}]}]}
